In patent US7829568B2, “Substituted 5,6,7,8-tetrahydroimidazo[1,2-a]pyridin-2-ylamine compounds and their use for producing drugs” (Gruenenthal GmbH, priority 2005, dated 2010):

What follows are compounds tested on batrachotoxin (BTX) binding site of the sodium channel (assay: Affinity to the batrachotoxin (BTX) binding site of the sodium channel). Conditions: [3H]-batrachotoxinin A20 α-benzoate 10 nM; synaptosomes from rat cerebral cortex; test concentration not given.
Parameters: species or system rat

Point of comparison: `CCc1ccc(NC(=O)c2c(N(C)C(=O)c3cccc(Cl)c3)nc3n2CCCC3)cc1` [Example 31, 2-[(3-chloro-benzoyl)-methyl-amino]-5,6,7,8-tetrahydro-imidazo[1,2-a]pyridine-3-carboxylic acid (4-ethyl-phenyl)-amide], “BTX inhibition (rat) (% inhibition)” value 70%. Against it:
- CCCCN(C(=O)c1ccc(F)c(F)c1)c1nc2n(c1C(=O)N1CCN(c3ccc(C(F)(F)F)cn3)CC1)CCCC2 [Example 187, N-butyl-3,4-difluoro-N-{3-[4-(5-trifluoromethyl-pyridin-2-yl)-piperazine-1-carbonyl]-5,6,7,8-tetrahydro-imidazo[1,2-a]pyridin-2-yl}-benzamide] — lower, 41%
- CN(C(=O)c1cccc(Cl)c1)c1nc2n(c1C(=O)NC1CCN(Cc3ccccc3OCc3ccccc3)C1)CCCC2 (centres unmarked) [Example 59, 2-[(3-chloro-benzoyl)-methyl-amino]-5,6,7,8-tetrahydro-imidazo[1,2-a]pyridine-3-carboxylic acid [1-(2-benzyloxy-benzyl)-pyrrolidin-3-yl]-amide] — higher, 95%
- CN(C(=O)c1cccc(Cl)c1)c1nc2n(c1C(=O)N1CCN(c3cccc(C(F)(F)F)c3)CC1)CCCC2 [Example 14, 3-chloro-N-methyl-N-{3-[4-(3-trifluoromethyl-phenyl)-piperazine-1-carbonyl]-5,6,7,8-tetrahydro-imidazo[1,2-a]pyridin-2-yl}-benzamide] — lower, 41%
- Cc1ccc(C)c(N2CCN(C(=O)c3c(N(C)C(=O)c4cccc(Cl)c4)nc4n3CCCC4)CC2)c1 [Example 100, 3-chloro-N-{3-[4-(2,5-dimethyl-phenyl)-piperazine-1-carbonyl]-5,6,7,8-tetrahydro-imidazo[1,2-a]pyridin-2-yl}-N-methyl-benzamide] — higher, 74%
- CCCCN(C(=O)c1cccc(Cl)c1)c1nc2n(c1C(=O)NCCc1ccc(Oc3ccccc3)cc1)CCCC2 [Example 134, 2-[butyl-(3-chloro-benzoyl)-amino]-5,6,7,8-tetrahydro-imidazo[1,2-a]pyridine-3-carboxylic acid [2-(4-phenoxy-phenyl)-ethyl]-amide] — higher, 93%
- CN(C(=O)c1ccccc1)c1nc2n(c1C(=O)N1CCN(c3ccc(C(F)(F)F)cc3)CC1)CCCC2 [Example 167, N-methyl-N-{3-[4-(4-trifluoromethyl-phenyl)-piperazine-1-carbonyl]-5,6,7,8-tetrahydro-imidazo[1,2-a]pyridin-2-yl}-benzamide] — lower, 44%
- CCCCN(C(=O)c1cccc(Cl)c1)c1nc2n(c1C(=O)NCc1ccccc1C(F)(F)F)CCCC2 [Example 51, 2-[butyl-(3-chloro-benzoyl)-amino]-5,6,7,8-tetrahydro-imidazo[1,2-a]pyridine-3-carboxylic acid 2-trifluoromethyl-benzylamide] — lower, 35%
- CCCCN(C(=O)c1ccc(F)c(F)c1)c1nc2n(c1C(=O)N1CCN(c3cc(Cl)ccc3C)CC1)CCCC2 [Example 119, N-butyl-N-{3-[4-(5-chloro-2-methyl-phenyl)-piperazine-1-carbonyl]-5,6,7,8-tetrahydro-imidazo[1,2-a]pyridin-2-yl}-3,4-difluoro-benzamide] — higher, 83%
- Cc1ccc(CCNC(=O)c2c(N(C)C(=O)c3cccc4ccccc34)nc3n2CCCC3)cc1 [Example 49, 2-[methyl-(naphthalene-1-carbonyl)-amino]-5,6,7,8-tetrahydro-imidazo[1,2-a]pyridine-3-carboxylic acid (2-p-tolyl-ethyl)-amide] — lower, 37%
- CN(C(=O)c1cccc(Cl)c1)c1nc2n(c1C(=O)N1CCN(Cc3ccc4ccccc4n3)CC1)CCCC2 [Example 53, 3-chloro-N-methyl-N-[3-(4-quinolin-2-ylmethyl-piperazine-1-carbonyl)-5,6,7,8-tetrahydro-imidazo[1,2-a]pyridin-2-yl]-benzamide] — lower, 64%
- CC1C(NC(=O)c2c(N(C)C(=O)c3cccc(Cl)c3)nc3n2CCCC3)CC2CC1C2(C)C (centres unmarked) [Example 27, 2-[(3-chloro-benzoyl)-methyl-amino]-5,6,7,8-tetrahydro-imidazo[1,2-a]pyridine-3-carboxylic acid (2,6,6-trimethyl-bicyclo[3.1.1]hept-3-yl)-amide] — lower, 35%
- CN(C(=O)Cc1ccccc1)c1nc2n(c1C(=O)NCCc1cccc(C(F)(F)F)c1)CCCC2 [Example 156, 2-(methyl-phenylacetyl-amino)-5,6,7,8-tetrahydro-imidazo[1,2-a]pyridine-3-carboxylic acid [2-(3-trifluoromethyl-phenyl)-ethyl]-amide] — lower, 40%
- CCCCN(C(=O)c1cccc(Cl)c1)c1nc2n(c1C(=O)Nc1ccc(NC(=O)OC(C)(C)C)cc1)CCCC2 [Example 189, [4-({2-[butyl-(3-chloro-benzoyl)-amino]-5,6,7,8-tetrahydro-imidazo[1,2-a]pyridine-3-carbonyl}-amino)-phenyl]-carbamic acid tert-butyl ester] — higher, 93%
- CCCCN(C(=O)c1ccc(F)c(F)c1)c1nc2n(c1C(=O)N1CCN(c3ccccc3Cl)CC1)CCCC2 [Example 178, N-butyl-N-{3-[4-(2-chloro-phenyl)-piperazine-1-carbonyl]-5,6,7,8-tetrahydro-imidazo[1,2-a]pyridin-2-yl}-3,4-difluoro-benzamide] — higher, 79%
- CCCCN(C(=O)c1cccc(Cl)c1)c1nc2n(c1C(=O)N[C@H](C(=O)OCc1ccccc1)C(C)C)CCCC2 [Example 91] — lower, 48%
- CCOc1ccc(Br)cc1CN1CCN(C(=O)c2c(N(C)C(=O)Cc3ccccc3)nc3n2CCCC3)CC1 [Example 130, N-{3-[4-(5-bromo-2-ethoxy-benzyl)-piperazine-1-carbonyl]-5,6,7,8-tetrahydro-imidazo[1,2-a]pyridin-2-yl}-N-methyl-2-phenyl-acetamide] — lower, 67%
- CN(C(=O)c1cccc2ccccc12)c1nc2n(c1C(=O)NCC(c1ccccc1)c1ccccc1)CCCC2 [Example 46, 2-[methyl-(naphthalene-1-carbonyl)-amino]-5,6,7,8-tetrahydro-imidazo[1,2-a]pyridine-3-carboxylic acid (2,2-diphenyl-ethyl)-amide] — lower, 67%
- CN(C(=O)c1ccccc1)c1nc2n(c1C(=O)NC(c1ccccc1)c1ccc(Cl)cc1)CCCC2 (centres unmarked) [Example 166, 2-(benzoyl-methyl-amino)-5,6,7,8-tetrahydro-imidazo[1,2-a]pyridine-3-carboxylic acid [(4-chloro-phenyl)-phenyl-methyl]-amide] — higher, 72%
- CCCCN(C(=O)c1ccc(F)c(F)c1)c1nc2n(c1C(=O)NC1CCCCC1OCc1ccccc1)CCCC2 (centres unmarked) [Example 161, 2-[butyl-(3,4-difluoro-benzoyl)-amino]-5,6,7,8-tetrahydro-imidazo[1,2-a]pyridine-3-carboxylic acid (2-benzyloxy-cyclohexyl)-amide] — lower, 49%
- CCCCN(C(=O)c1cccc(Cl)c1)c1nc2n(c1C(=O)NCc1ccc(OC(F)(F)F)cc1)CCCC2 [Example 127, 2-[butyl-(3-chloro-benzoyl)-amino]-5,6,7,8-tetrahydro-imidazo[1,2-a]pyridine-3-carboxylic acid 4-trifluoromethoxy-benzylamide] — lower, 60%
- CCCCN(C(=O)c1ccc(F)c(F)c1)c1nc2n(c1C(=O)N1CCN(Cc3ccc(Cl)cc3)CC1)CCCC2 [Example 150, N-butyl-N-{3-[4-(4-chlorobenzyl)-piperazine-1-carbonyl]-5,6,7,8-tetrahydro-imidazo[1,2-a]pyridin-2-yl}-3,4-difluoro-benzamide] — lower, 69%
- CCCCN(C(=O)c1cccc(Cl)c1)c1nc2n(c1C(=O)NC(C)c1cccc3ccccc13)CCCC2 (centres unmarked) [Example 39, 2-[butyl-(3-chloro-benzoyl)-amino]-5,6,7,8-tetrahydro-imidazo[1,2-a]pyridine-3-carboxylic acid (1-naphthalen-1-yl-ethyl)-amide] — lower, 47%
- CCCCN(C(=O)c1cccc(Cl)c1)c1nc2n(c1C(=O)NC(COC)Cc1ccccc1)CCCC2 (centres unmarked) [Example 86, 2-[butyl-(3-chloro-benzoyl)-amino]-5,6,7,8-tetrahydro-imidazo[1,2-a]pyridine-3-carboxylic acid (1-methoxymethyl-2-phenyl-ethyl)-amide] — lower, 42%
- CCCCN(C(=O)c1cccc(Cl)c1)c1nc2n(c1C(=O)NCc1ccccc1OCC)CCCC2 [Example 43, 2-[butyl-(3-chloro-benzoyl)-amino]-5,6,7,8-tetrahydro-imidazo[1,2-a]pyridine-3-carboxylic acid 2-ethoxy-benzylamide] — lower, 40%
- CCCCN(C(=O)c1cccc(Cl)c1)c1nc2n(c1C(=O)NCCCn1ccnc1)CCCC2 [Example 9, 2-[butyl-(3-chloro-benzoyl)-amino]-5,6,7,8-tetrahydro-imidazo[1,2-a]pyridine-3-carboxylic acid (3-imidazol-1-yl-propyl)-amide] — lower, 36%
- CCCCN(C(=O)c1cccc(Cl)c1)c1nc2n(c1C(=O)NCCc1cc(OC)ccc1OC)CCCC2 [Example 2, 2-[butyl-(3-chloro-benzoyl)-amino]-5,6,7,8-tetrahydro-imidazo[1,2-a]pyridine-3-carboxylic acid [2-(2,5-dimethoxy-phenyl)-ethyl]-amide] — lower, 59%
- CCCCN(C(=O)c1ccc(F)c(F)c1)c1nc2n(c1C(=O)NCCC(C)(C)C)CCCC2 [Example 171, 2-[butyl-(3,4-difluoro-benzoyl)-amino]-5,6,7,8-tetrahydro-imidazo[1,2-a]pyridine-3-carboxylic acid (3,3-dimethyl-butyl)-amide] — lower, 47%
- CN(C(=O)c1cccc2ccccc12)c1nc2n(c1C(=O)N1CCc3c([nH]c4ccccc34)C1)CCCC2 [Example 144, naphthalene-1-carboxylic acid methyl-[3-(1,3,4,9-tetrahydro-b-carboline-2-carbonyl)-5,6,7,8-tetrahydro-imidazo[1,2-a]pyridin-2-yl]-amide] — lower, 31%
